Consider two compounds from patent US7749981B2, “Drug-eluting stents coated with non-nucleotide P2Y12 receptor antagonist compound” (Inspire Pharmaceuticals, Inc., priority 2005, dated 2010).

The subject of the test is washed human platelets. The test can be described thus: Inhibition of ADP-induced platelet aggregation in washed human platelets. As to conditions: for activity as antagonists of P2Y12-mediated platelet aggregation (in words): comment on Table 1 data; for IC50: agonist challenge (ADP) typically 1-5 μM, average of two experiments or more. The format is cell-based. As to the method: Isolation of Platelets: Human blood is obtained from informed healthy adult volunteers. Blood is collected into one-sixth volume of acid/citrate/dextrose (ACD) buffer (85 mM sodium citrate, 65 mM citric acid, and 100 mM glucose). Collected blood is placed in a water bath at 37° C. for 30 minutes. Blood is then centrifuged at 275×g for 16 minutes at room temperature and the platelet-rich plasma is removed and centrifuged at 2200×g for 13 minutes at room temperature. The platelet pellet is resuspended in 40 mL of HEPES-buffered Tyrode's solution (137 mM NaCl, 2.7 mM KCl, 1 mM MgCl2, 2 mM CaCl2, 12 mM NaHCO3, 0.36 mM NaH2PO4, 5.5 mM glucose, 5 mM HEPES pH 7.4, 0.35% bovine serum albumin or 0.35% human serum albumin) containing 10 U/mL heparin and 5 μM (final concentration) prostaglandin 12 (PGI2). The platelet suspension is incubated in a 37° C. water bath for 10 minutes and then 5 μM (final conc.) PGI2 is added just before centrifugation at 1900×g for 8 minutes. The resulting pellet is resuspended in 40 mL of HEPES-buffered Tyrode's solution containing 5 μM (final concentration) PGI2 and then is incubated for 10 minutes in a 37° C. water bath. A small aliquot (500 μL) of the platelet suspension is removed for platelet counting. Prior to centrifugation 5 μM (final concentration) PGI2 is added to the suspension and then the suspension is centrifuged at 1900×g for 8 minutes. The pellet is resuspended at a density of 5×10^8 cells/mL in HEPES-buffered Tyrode's solution containing 0.05 U/mL apyrase.
Aggregation Studies: ADP-induced platelet aggregation is determined by measuring the transmission of light through a 0.5 ml suspension of stirred (1000 rpm) washed platelets in a lumi-aggregometer at 37° C. (Chrono-Log Corp. Havertown, Pa.). The baseline of the instrument is set using 0.5 ml of Hepes-buffered Tyrode's solution. Prior to aggregation measurements, the platelet suspension is supplemented with 1 mg/ml fibrinogen. Platelet aggregation is initiated by the addition of indicated concentrations of ADP or other agonists, and the light transmission is continuously recorded for at least 8 min. When inhibitors of platelet aggregation are tested, platelets are incubated for 2 min in the presence of indicated concentrations of inhibitor before addition of ADP or other agonists, and the response is recorded for at least 8 min. The potency of agonists and inhibitors of platelet aggregation is calculated from both the rate of aggregation and the maximal extent of aggregation obtained for each determination by fitting the data to a four-parameter logistic equation using the GraphPad software package (GraphPad Corp. San Diego, Calif.).
IC50 values represent the concentration of antagonist necessary to inhibit by 50% the aggregation elicited by a given concentration of ADP.
Platelet IC50 data were determined using washed human platelets, according to the protocol of example 14. Agonist challenge (ADP) typically in the range of 1-5 μM.

Read-outs that look alike come from different tables or passages of the source.

For orientation: IC50 means the midpoint of a concentration-inhibition curve.

Turning to `CCNC(=O)Nc1ncnc2c1ncn2C1CC(CNC(=O)c2ccccc2C(=O)O)C2OC(C=Cc3ccccc3)OC21` (stereo not drawn) [Compound 239, N-{6-[6-(3-Ethyl-ureido)-purin-9-yl]-2-trans-styryl-tetrahydro-cyclopenta[1,3]dioxol-4-ylmethyl}-phthalamic acid], the “activity as antagonists of P2Y12-mediated platelet aggregation (in words)” value (washed human platelets) is recorded as “show potent activity”. In addition, the IC50 (read-out: PLATELET DATA IC50 (uM) Washed Platelets, washed human platelets) is 0.086 µM.

For the compound `CCNC(=O)Nc1ncnc2c1ncn2C1CC(COCc2ccsc2C(=O)O)C2OC(C=Cc3ccccc3)OC21` (stereo not shown) [Compound 298, 3-{6-[6-(3-Ethyl-ureido)-purin-9-yl]-2-styryl-tetrahydro-cyclopenta[1,3]dioxol-4-ylmethoxymethyl}-thiophene-2-carboxylic acid], the IC50 (Homo sapiens, Platelet, read-out: PLATELET DATA IC50 (uM) Washed Platelets, washed human platelets) turned out to be 0.081 µM. Also, where the note is “washed human platelets”, the “activity as antagonists of P2Y12-mediated platelet aggregation (in words)” value is listed as “are active”.
